Experimental data published in patent US20050170391A1, “TAUT1 transporters expressed in blood brain barrier cells” (Xenoport, Inc., priority 2004, published 2005).

Assays:
TAUT1 = molecular target: T1, TAUT1 (Homo sapiens, UniProt P31641); assay: hTAUT1 direct uptake assay in HEK-TREx-TAUT1 cells (LC-MS-MS); assay type: cell-based; set-up: expressed in transfected cells; host or cells: HEK-TREx cells (HEK-TREx-TAUT1 inducible line); details: direct uptake into HEK-TREx-TAUT1 cells, +TET minus no TET; 15 min, room temperature
T1 sequence (P31641 1-620): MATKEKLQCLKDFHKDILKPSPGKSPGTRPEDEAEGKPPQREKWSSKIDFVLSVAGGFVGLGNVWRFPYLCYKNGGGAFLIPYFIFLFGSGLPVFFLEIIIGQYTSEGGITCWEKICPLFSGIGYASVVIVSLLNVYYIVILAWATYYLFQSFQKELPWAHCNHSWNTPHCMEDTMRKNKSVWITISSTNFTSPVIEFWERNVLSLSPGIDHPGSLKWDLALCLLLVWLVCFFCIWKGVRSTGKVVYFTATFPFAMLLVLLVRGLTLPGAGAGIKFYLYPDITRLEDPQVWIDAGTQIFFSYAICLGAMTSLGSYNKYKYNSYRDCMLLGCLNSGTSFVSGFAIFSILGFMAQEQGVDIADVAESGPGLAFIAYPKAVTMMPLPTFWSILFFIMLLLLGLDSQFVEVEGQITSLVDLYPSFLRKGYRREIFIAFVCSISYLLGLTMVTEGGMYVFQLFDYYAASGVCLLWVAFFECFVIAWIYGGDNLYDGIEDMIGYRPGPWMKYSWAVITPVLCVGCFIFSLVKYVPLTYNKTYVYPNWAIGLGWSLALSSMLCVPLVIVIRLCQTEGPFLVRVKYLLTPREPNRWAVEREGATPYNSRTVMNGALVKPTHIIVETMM
Description: A modified direct uptake assay was developed to determine the ability of test compounds to be transported into HEK-TREx cells induced to over-express hTAUT. Four concentrations (bracketing the affinity as measured by competition assays) per compound were routinely tested. Non-specific uptake was determined by measuring the uptake into cells not induced to express the transporter (“no tet”).
Typically, four concentrations bracketing the IC50 were tested. The highest test concentration for each compound was made in an eppendorf tube and diluted into HBSS. The samples were robustly vortexed and centrifuged for 10 minutes at 13,200 rpm to spin down any precipitate. […] Three additional 2-fold dilutions were made in the subsequent rows (B-D or […]) in HBSS.
An internal standard of 50 μM propranolol in 50:50 ethanol:water was also prepared. To prepare standard curves, several concentrations of the test compounds were diluted into HEK cell extract (prepared from tet-treated, mock-incubated and extracted cells as described below) with a final internal standard concentration of 5 μM. Standards of 10, 5, 1, 0.5, 0.1, 0.05, 0.01 and 0.005 μM were routinely run for each test compound.
HEK-TREx-hTAUT cells were plated in 96-well plates and treated with plus (columns 1-3 and 7-9) or without tetracycline (or a tetracycline analog; columns 4-6 and 10-12). The cells were removed from the incubator, and the growth media was removed from the cells. The cells were washed twice in room temperature HBSS (100 μl/well/wash) using a 96-well plate washer (Bio Tek ELX405). Alternatively, cells were washed manually with equivalent volumes using a multichannel pipettor. Immediately before the assay was begun, the final 100 μl wash solution was removed from the cells. The assay was started by using a 96-well pipettor to add 50 μl from the “compound” plate to each well of the HEK-TREx-hTAUT cell plate. The plate was incubated at room temperature for 15 minutes.
After the final wash, as much of the wash buffer as possible was removed by aspirating the wells with a probe that reached the bottom of the wells. (Residual salts from the wash buffer can adversely affect the LC-MS-MS by disrupting the LC method or by suppressing the MS signal.) 150 μl of a 50:50 ethanol:water solution was added to each well to lyse the cells and extract the test compound. The plate was covered and allowed to sit for 20 minutes at room temperature to ensure cell lysis. (The 50% ethanol solution is the generic solution for extraction. For compounds soluble in water or other solvents compatible with the LC-MS-MS, such solutions can be tried to determine they interfere with the LC-MS-MS analysis. If the organic solvent concentration is too high (>50%), it may be detrimental to the LC run).
120 μl of the cell extract was removed from each well and transferred to a fresh 96-well v-bottom polypropylene plate. This plate was covered with an adherent cover (top seal) and centrifuged for 15 minutes at 5,700 rpm (Allegra 25R centrifuge) at 4° C. to pellet any cell precipitate. 10 μl of the 50 μM propranolol solution was added to each well of a fresh 96-well plate (a plate amenable for sampling in the LC-MS-MS). 90 μl of the supernatant from the centrifuged cell extract was removed and transferred to the plate containing the 10 μl of propranolol (using the Cybi-well 96-well pipettor). The sample plate with a bubble lid suitable for use with the LC-MS-MS and placed on a plate shaker for 5 to 10 minutes to mix the sample and the propranolol. The samples were submitted for LC-MS-MS analysis. The levels of intracellular compounds were determined by converting the peak area to concentration by extrapolating from the standard curve for each compound. Uptake was expressed as μM/well.
While the uptake values in these experiments were expressed as “μM/well”, the values can be easily converted to “pmol/well” or “pmol/well/unit time”. All of the samples were extracted with 150 μl of extraction buffer.

[1] = molecular target: T2, mouse homolog of the transporter (TAUT1) (Mus musculus, UniProt O35316); details: literature IC50, mouse homolog of the transporter; read-out: Literature Km or IC50; cited from earlier work
T2 sequence (O35316 1-621): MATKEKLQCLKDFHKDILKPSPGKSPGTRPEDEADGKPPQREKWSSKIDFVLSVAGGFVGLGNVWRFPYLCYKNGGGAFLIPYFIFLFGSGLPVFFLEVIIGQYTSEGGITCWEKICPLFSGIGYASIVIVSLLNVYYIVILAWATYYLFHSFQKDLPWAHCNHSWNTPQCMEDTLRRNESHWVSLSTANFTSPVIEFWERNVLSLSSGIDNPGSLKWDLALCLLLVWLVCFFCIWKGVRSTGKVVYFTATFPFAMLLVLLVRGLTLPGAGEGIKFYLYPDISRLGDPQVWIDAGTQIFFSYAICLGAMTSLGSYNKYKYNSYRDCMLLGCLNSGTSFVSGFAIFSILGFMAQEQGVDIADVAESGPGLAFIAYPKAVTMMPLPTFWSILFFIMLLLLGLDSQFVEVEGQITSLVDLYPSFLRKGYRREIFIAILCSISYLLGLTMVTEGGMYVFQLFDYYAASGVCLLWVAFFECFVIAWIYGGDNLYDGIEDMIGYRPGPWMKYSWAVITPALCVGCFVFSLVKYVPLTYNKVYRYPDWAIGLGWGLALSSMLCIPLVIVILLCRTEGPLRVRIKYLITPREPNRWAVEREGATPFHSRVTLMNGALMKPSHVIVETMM

| SMILES | Vmax (TAUT1) [μM/well] | IC50 [1] [µM] | Km (TAUT1) [µM] | pKm (TAUT1) |
| --- | --- | --- | --- | --- |
| O=C(O)Cc1c[nH]cn1 [IAA, 4-imidazole acetic acid] | 6.1 | – | – | – |
| NCCCC(=O)O [GABA, γ-aminobutyric acid] | 12 | 500 | – | – |
| N=C(N)NCCC(=O)O [GPA] | 6.4 | 120 | 120 | 4.0 |
| NCC(CC(=O)O)c1ccc(Cl)cc1 (stereo not shown) [R,S-Baclofen] | 5.4 | – | 1700 | 2.9 |
